Test results as given in patent publication US20100210567A1, “USE OF A TUFTSIN AS A THERAPEUTIC AGENT” (priority 2007, published 2010).
Residues, ends and D or L forms follow the SMILES beside them.

Experiments:
[1] = test system: Streptococcus pneumoniae; format: cell-based; conditions: 5 micrograms per ml
[2] = in vitro; conditions: human
Procedure: HepG2-2.2.15 is a stable cell line containing the hepatitis B virus (HBV) ayw strain genome (ATCC Cat. No. CRL-11997). […] After 16-24 hours the confluent monolayer of HepG2-2.2.15 cells was washed and the medium was replaced with complete medium containing test peptide—10 micrograms per ml—in duplicate. […] Three days later the culture medium was replaced with fresh medium containing the peptide. Six days following the initial administration of the peptide, the cell culture supernatants was collected, treated with pronase and DNAse and then used in a real-time quantitative TaqMan PCR assay. The PCR-amplified HBV DNA was detected in real-time by monitoring increases in fluorescence signals that result from the exonucleolytic degradation of a quenched fluorescence probe molecule that hybridizes to the amplified HBV DNA. For each PCR amplification, a standard curve was simultaneously generated using dilutions of purified HBV DNA. Antiviral activity was calculated from the reduction in HBV DNA levels (% virus control). A novel dye uptake assay was then employed to measure cell viability, which is used to calculate toxicity (% cell control).

[3] = in vitro; conditions: human, CEM-SS cells
[4] = test system: Pseudomonas aeruginosa; format: cell-based; conditions: 5 micrograms per ml
[5] = in vitro; format: cell-based; conditions: human, MRC-5 cells
[6] = test system: MRSA; conditions: 5 micrograms per ml

C[C@@H](O)[C@H](N)C(=O)N[C@@H](CCCCN)C(=O)N1CCC[C@H]1C(=O)N[C@@H](CCCNC(=N)N)C(=O)O [Tuftsin, Thr-Lys-Pro-Arg-OH] (H-TKPR-OH)
0.0%: % inhibition [1] | % inhibition [4] | % inhibition [6]
100%: viability at 144 h, 10 micrograms per ml [2] | viability at 10 micrograms per ml [3] | viability at 144 h [5]
